The values that follow come from US9453028B2, “Protein kinase C inhibitors and uses thereof” (Rigel Pharmaceuticals, Inc., priority 2009, dated 2016).

Each structure is given as a SMILES string.

One assay has as its system Human primary T cell. Briefly: IL-2 ELISA, human primary T cell, anti-CD3+CD28+ whole cell assay. In kind it is cell-based. To be noted: IL-2 by ELISA, human primary T cells stimulated with anti-CD3+CD28. The procedure:
2. IL-2 ELISA, Human Primary T Cell, Anti-CD3+CD28+ Assays
Human primary T cells were prepared as follows. Whole blood was obtained from a healthy volunteer, mixed 1:1 with PBS, layered on to Ficoll Hypaque (Amersham Pharmacia Biotech, Piscataway, N.J., Catalog #17-1440-03) in 2:1 blood/PBS:ficoll ratio and centrifuged for 30 minutes at 4° C. at 1750 rpm. The cells at the serum:ficoll interface were recovered and washed twice with 5 volumes of PBS. These freshly isolated human peripheral blood mononuclear cells were cultured in Yssel's medium containing 40 U/mL IL2 in a flask pre-coated with 1 μg/mL αCD3 and 5 μg/mL αCD28 (Anti-Human CD3, BD Pharmingen Catalog #555336, Anti-Human CD28, Beckman Coulter Catalog #1M1376). The cells were stimulated for 3-4 days, then transferred to a fresh flask and maintained in RPMI (RPMI-1640 with L-Glutamine; Mediatech, Inc., Herndon Va., cat. #10-040-CM) with 10% FBS and 40 U/mL IL-2. The primary T-cells were then washed twice with PBS to remove the IL-2.
Human primary T cells (100,000 cells per well) were pre-incubated with or without test compound in Yssel's medium for 1 hr at 37° C. Cells were then stimulated by transferring them to round-bottom 96-well plates pre-coated with 1 μg/ml αCD3 and 5 μg/ml αCD28. For counter assay, cells were instead stimulated by adding 8× stock solutions of PMA and ionomycin in Yssels (for final concentrations of 0.5 ng/ml PMA and 0.1 μM ionomycin, both from Calbiochem). Cells were incubated at 37° C. for 24 hours before 100 μL supernatants were harvested for quantification of IL-2 by ELISA using Human IL-2 Duoset ELISA Kit from R and D Systems, Cat. # DY202E.
(§1) Several subject compounds were tested according to procedures in the “Characterization of Functional Properties” section. PKC kinase activity was measured using the procedure Section A.1 (Protein Kinase C assay) with the appropriate isoform. The whole cell assay was run according to the procedure in Section A.2 (IL-2 ELISA, Human primary T cell, anti-CD3+CD28+ Assays). […] Blank entries indicate that the IC50 was not determined.
Background: ELISA stands for enzyme-linked immunosorbent assay.

The next assay concerns the target T1, PKC-beta (Homo sapiens, UniProt P05771).
T1 construct: purchased Oxford Biomedical Research
In words: Protein Kinase C assay (fluorescence polarization), PKC-beta. The class given is biochemical. The procedure: (§2) The inhibition of PKC activity was measured by monitoring the production of phosphorylated peptide by fluorescence polarization at different concentrations of the inhibitor. Reactions were carried out in 96-well plate format with a total volume of 20 μL containing 20 mM HEPES, pH 7.4, 5 mM MgCl2, 0.2 mM CaCl2, 1 mM DTT, 0.02% Brij-35, 0.1 mg/mL phosphatidylserine, 0.02 mg/mL dioleoyl-sn-glycerol and 5 μM each of ATP and the peptide substrate. Compounds were first diluted serially in DMSO and then transferred to a solution containing the above concentrations of HEPES, MgCl2, CaCl2, DTT, and Brij-35 to yield 5× compound solutions in 2% DMSO, which was then added to the reaction solution. Reactions were initiated by the addition of PKC at a typical concentration as described in the table below, and then allowed to incubate at room temperature for 20 minutes. At the end of this time, a combination of quench (EDTA) and detection (peptide tracer and antibody) reagents was added using the protocol of Invitrogen P2748 (Carlsbad, Calif.), a Protein Kinase C Fluorescence polarization Assay Kit. After a 30 minute period of incubation, the amount of phosphorylated peptide generated was measured by fluorescence polarization (Ex=485 nm, Em=535 nm) using a Tecan Polarian instrument (Switzerland).
Human recombinant PKC β1 is obtained from Oxford Biomedical Research and is used under the assay conditions as described under Section A.1 above.
as §1

Another assay concerns the target T2, PKC-delta (Homo sapiens, UniProt Q05655).
T2 construct: purchased Oxford Biomedical Research
Briefly: Protein Kinase C assay (fluorescence polarization), PKC-delta. The class given is biochemical. The procedure: as §2
Human recombinant PKC δ is obtained from Oxford Biomedical Research and is used under the assay conditions as described under Section A.1 above.
as §1
(Polarisation of emitted light reports the rotation of a fluorescent probe.)

In a further assay the target is T3, PKC-theta (Homo sapiens, UniProt Q04759).
T3 construct: purchased Upstate Biotechnologies, Temecula, CA 14-444
T3 sequence (Q04759 whole entry): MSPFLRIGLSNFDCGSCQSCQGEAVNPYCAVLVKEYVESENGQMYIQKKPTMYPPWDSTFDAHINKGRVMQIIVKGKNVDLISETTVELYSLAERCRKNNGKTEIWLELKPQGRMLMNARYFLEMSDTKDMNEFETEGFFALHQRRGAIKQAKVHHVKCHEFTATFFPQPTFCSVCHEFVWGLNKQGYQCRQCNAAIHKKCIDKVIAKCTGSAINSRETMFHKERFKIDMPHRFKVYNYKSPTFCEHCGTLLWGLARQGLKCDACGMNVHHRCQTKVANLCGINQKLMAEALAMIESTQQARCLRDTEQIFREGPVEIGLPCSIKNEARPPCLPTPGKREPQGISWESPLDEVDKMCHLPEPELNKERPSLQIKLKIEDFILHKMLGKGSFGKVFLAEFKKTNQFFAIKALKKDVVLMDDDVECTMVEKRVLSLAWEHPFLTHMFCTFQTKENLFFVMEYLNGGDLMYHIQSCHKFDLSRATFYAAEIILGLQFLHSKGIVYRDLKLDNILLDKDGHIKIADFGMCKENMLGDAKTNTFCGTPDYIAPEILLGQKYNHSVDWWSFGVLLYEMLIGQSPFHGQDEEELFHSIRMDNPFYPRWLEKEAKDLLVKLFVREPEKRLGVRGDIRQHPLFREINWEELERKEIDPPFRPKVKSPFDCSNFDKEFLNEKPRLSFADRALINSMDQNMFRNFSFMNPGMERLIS
In words: Protein Kinase C assay (fluorescence polarization), PKC-theta. The class given is biochemical. The method, then:
as §2
Human recombinant PKC θ is used under the assay conditions as described above.
as §1

For a further assay, the target named is T4, PKC-alpha (Homo sapiens, UniProt P17252).
T4 construct: purchased Oxford Biomedical Research
In words: Protein Kinase C assay (fluorescence polarization), PKC-alpha. In kind it is biochemical. The method, then: as §2
Human recombinant PKC α is obtained from Oxford Biomedical Research and is used under the assay conditions as described under Section A.1 above.
as §1

The target in another assay is T5, PKC-epsilon (Homo sapiens, UniProt Q02156).
T5 construct: purchased Upstate Biotechnologies, Temecula, CA 14-518
T5 sequence (Q02156 1-737): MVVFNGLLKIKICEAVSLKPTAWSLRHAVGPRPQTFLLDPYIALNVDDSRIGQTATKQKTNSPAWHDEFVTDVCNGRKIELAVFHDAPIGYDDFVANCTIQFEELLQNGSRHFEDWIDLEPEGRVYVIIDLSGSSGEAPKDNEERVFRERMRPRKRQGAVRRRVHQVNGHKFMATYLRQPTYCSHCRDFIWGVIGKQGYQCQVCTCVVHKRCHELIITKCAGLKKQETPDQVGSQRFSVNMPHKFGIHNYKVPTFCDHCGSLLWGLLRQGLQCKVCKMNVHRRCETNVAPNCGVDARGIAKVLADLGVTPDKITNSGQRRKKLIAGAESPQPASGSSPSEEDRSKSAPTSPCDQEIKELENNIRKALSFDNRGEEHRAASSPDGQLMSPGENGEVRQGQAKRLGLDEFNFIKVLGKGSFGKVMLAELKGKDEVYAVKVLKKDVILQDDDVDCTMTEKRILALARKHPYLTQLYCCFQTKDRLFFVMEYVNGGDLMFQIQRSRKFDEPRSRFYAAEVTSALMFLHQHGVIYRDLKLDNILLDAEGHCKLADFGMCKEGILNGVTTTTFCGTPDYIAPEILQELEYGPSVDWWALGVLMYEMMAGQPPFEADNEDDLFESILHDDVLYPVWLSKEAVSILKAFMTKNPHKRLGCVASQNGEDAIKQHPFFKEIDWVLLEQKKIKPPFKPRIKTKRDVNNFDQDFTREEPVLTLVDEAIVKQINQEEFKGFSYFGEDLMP
Briefly: Protein Kinase C assay (fluorescence polarization), PKC-epsilon. The class given is biochemical. The method, then: as §2
Human recombinant PKC […] is obtained from Oxford Biomedical Research and is used under the assay conditions as described under Section A.1 above.
as §1

T1 sequence (P05771 whole entry): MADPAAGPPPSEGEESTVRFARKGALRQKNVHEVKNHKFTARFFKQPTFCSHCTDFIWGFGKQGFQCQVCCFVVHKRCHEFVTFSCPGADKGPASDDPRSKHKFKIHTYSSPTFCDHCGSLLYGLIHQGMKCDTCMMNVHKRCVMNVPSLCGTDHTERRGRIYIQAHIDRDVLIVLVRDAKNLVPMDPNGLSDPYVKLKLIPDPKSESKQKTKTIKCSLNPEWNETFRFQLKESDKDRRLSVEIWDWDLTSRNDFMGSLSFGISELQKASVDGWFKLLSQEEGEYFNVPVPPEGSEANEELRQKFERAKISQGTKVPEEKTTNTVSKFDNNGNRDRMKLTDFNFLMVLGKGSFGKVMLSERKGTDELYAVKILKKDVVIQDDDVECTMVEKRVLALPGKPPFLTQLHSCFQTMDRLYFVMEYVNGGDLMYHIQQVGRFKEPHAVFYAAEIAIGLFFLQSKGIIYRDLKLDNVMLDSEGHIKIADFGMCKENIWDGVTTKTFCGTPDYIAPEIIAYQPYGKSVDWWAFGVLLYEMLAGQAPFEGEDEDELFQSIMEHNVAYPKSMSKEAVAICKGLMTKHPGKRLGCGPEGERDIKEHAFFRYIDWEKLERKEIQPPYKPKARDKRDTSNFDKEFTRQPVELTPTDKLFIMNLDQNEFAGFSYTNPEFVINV
T2 sequence (Q05655 whole entry): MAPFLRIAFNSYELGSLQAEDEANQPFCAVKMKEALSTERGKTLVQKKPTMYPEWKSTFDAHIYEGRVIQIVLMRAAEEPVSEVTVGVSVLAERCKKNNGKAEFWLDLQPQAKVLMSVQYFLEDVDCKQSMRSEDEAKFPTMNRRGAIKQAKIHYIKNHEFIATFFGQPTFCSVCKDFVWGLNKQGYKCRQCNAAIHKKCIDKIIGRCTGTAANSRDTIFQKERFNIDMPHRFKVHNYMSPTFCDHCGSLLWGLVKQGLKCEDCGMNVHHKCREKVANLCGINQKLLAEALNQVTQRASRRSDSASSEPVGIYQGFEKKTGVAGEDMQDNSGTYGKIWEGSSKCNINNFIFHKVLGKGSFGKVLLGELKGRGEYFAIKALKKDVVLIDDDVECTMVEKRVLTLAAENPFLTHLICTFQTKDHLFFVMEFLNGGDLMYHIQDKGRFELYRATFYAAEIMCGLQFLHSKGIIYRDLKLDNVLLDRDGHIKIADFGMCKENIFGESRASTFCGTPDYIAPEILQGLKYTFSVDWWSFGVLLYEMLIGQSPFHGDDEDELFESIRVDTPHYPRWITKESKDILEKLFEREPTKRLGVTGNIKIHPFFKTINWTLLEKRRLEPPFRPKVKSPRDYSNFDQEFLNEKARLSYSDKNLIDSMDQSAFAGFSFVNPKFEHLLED

For orientation: IC50 means the concentration at which inhibition is half-maximal. With `CC1(C)CC(Nc2nc(Nc3ccc4c(c3)-n3nnnc3C(F)(F)O4)ncc2F)CC(C)(C)N1` [Compound 1-5, N2-(4,4-difluoro-4H-benzo[b]tetrazolo[1,5-d][1,4]oxazin-8-yl)-5-fluoro-N4-(2,2,6,6-tetramethylpiperidin-4-yl)pyrimidine-2,4-diamine], the IC50 with Human primary T cell (T-cell) was 500 to 1000 nM; on PKC-beta, under 250 nM; at PKC-delta, under 250 nM; at PKC-theta, under 250 nM; on PKC-alpha, under 250 nM; at PKC-epsilon, under 250 nM.
In the case of `CC1Oc2ccc(Nc3ncc(F)c(NC4CC(C)(C)NC(C)(C)C4)n3)cc2-n2nnnc21` (stereo not drawn) [Compound 1-17], the IC50 with Human primary T cell (T-cell), on PKC-beta, at PKC-delta, on PKC-theta, at PKC-alpha and on PKC-epsilon was under 250 nM in each case.
For the compound `CC1C[C@H](CNc2nc(Nc3ccc4c(c3)-n3nnnc3C(C)(C)O4)ncc2F)C(C)(C)N1` (stereo partly drawn) [Compound 2-8, N2-(4,4-dimethyl-4H-benzo[b]tetrazolo[1,5-d][1,4]oxazin-8-yl)-5-fluoro-N4-(((3R)-2,2,5-trimethylpyrrolidin-3-yl)methyl)pyrimidine-2,4-diamine], the IC50 with Human primary T cell was 250 to 500 nM; at PKC-beta, 250 to 500 nM; at PKC-delta it was under 250 nM; at PKC-theta, under 250 nM; at PKC-alpha it was under 250 nM; at PKC-epsilon it was under 250 nM.
For the compound `CC1(C)CC(Nc2nc(Nc3ccc4c(c3)-n3nnnc3C(C)(C)O4)ncc2F)CC(C)(C)N1` [Compound 1-7, N2-(4,4-dimethyl-4H-benzo[b]tetrazolo[1,5-d][1,4]oxazin-8-yl)-5-fluoro-N4-(2,2,6,6-tetramethylpiperidin-4-yl)pyrimidine-2,4-diamine], the IC50 in the assay on Human primary T cell (T-cell), at PKC-beta, on PKC-delta, on PKC-theta, at PKC-alpha and on PKC-epsilon was under 250 nM in each case.
Take `CC1(C)CC(Nc2nc(Nc3ccc4c(c3)-n3nnnc3C3(CCC3)O4)ncc2F)CC(C)(C)N1` [Compound 1-11, N2-{2,1-Spiro-butane-4H-tetrazolo[5,1-c][1,4]benzoxazin-8-yl}-5-fluoro-N4-(2,2,6,6-tetramethylpiperidin-4-yl)-2,4-pyrimidinediamine]: the IC50 in the assay on Human primary T cell (T-cell), on PKC-beta, at PKC-delta, on PKC-theta, on PKC-alpha and on PKC-epsilon was under 250 nM throughout.
